Data on nine compounds can be found in PubChem BioAssay (NCI).

Some test systems named below: HS 578T breast; CCRF-CEM leukemia; MALME-3M melanoma; HL-60(TB) leukemia; LOX IMVI melanoma; U251 CNS; A498 renal; SK-MEL-5 melanoma; HCC-2998 colon; SN12C renal.
Experiment in all cases: inhibition of tumour cell growth, NCI panel, 48 h

Values joined by “and” are separate entries in the source; they are usually repeats but may differ in a detail not shown here. Equal values may be shown once.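 Interpolation was linear, between the two tested concentrations surrounding the appropriate level; five concentrations were tested over 48 hours in 96-well plates. GI50 marks 50% less growth. Definition used: TGI = concentration required for complete inhibition of growth.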

For `Clc1ccc2ns[s+]c2c1`, the TGI in the assay on HS 578T breast is over 100 µM; in the assay with CCRF-CEM leukemia, over 81.9 µM; in the assay with MALME-3M melanoma, over 100 µM; in the assay with HL-60(TB) leukemia it was over 77900 nM; in the assay with LOX IMVI melanoma it was over 84000 nM; with U251 CNS, over 100 µM. The TGI was over 100000 nM in the assay on A498 renal, over 96.2 µM with SK-MEL-5 melanoma, over 100 µM with HCC-2998 colon and over 100 µM with SN12C renal.

Turning to `N=c1ccc2nc3c(cc(N)c4ccccc43)oc-2c1`, the GI50 with HS 578T breast is 201 nM; in the assay on CCRF-CEM leukemia, 546 nM; with MALME-3M melanoma it was 169 nM; in the assay on HL-60(TB) leukemia it was 147 nM; in the assay with LOX IMVI melanoma, 103 nM; in the assay on U251 CNS, 223 nM. Moreover, the results for the GI50 in the assay on SK-MEL-5 melanoma, in the assay with HCC-2998 colon and in the assay with SN12C renal were 144 nM, 380 nM and 253 nM, respectively. The TGI was found to be 0.622 µM with HS 578T breast; 3.28 µM with CCRF-CEM leukemia; 0.362 µM with MALME-3M melanoma; 733 nM with HL-60(TB) leukemia; 378 nM in the assay on LOX IMVI melanoma; 0.664 µM with U251 CNS. Further, the TGI was 780 nM in the assay with A498 renal, 0.277 µM in the assay on SK-MEL-5 melanoma, 1.31 µM with HCC-2998 colon and 0.801 µM in the assay with SN12C renal.

With `COc1ccc([C@@H](O)c2cc(-c3ncnc4cc(N5CCOCC5)ccc34)c(F)cc2Cl)nn1`, the GI50 with HS 578T breast was 750 nM; in the assay on CCRF-CEM leukemia, 3500 nM; with MALME-3M melanoma, 6400 nM; with HL-60(TB) leukemia, 360 nM; with LOX IMVI melanoma it was 2840 nM; with U251 CNS, 6220 nM. Further, the GI50 in the assay with A498 renal is 228 nM; with SK-MEL-5 melanoma, 1990 nM; in the assay with HCC-2998 colon, 2850 nM; in the assay on SN12C renal it was 2450 nM. The TGI with HS 578T breast was determined as 15.3 µM; in the assay with CCRF-CEM leukemia it was 26.7 µM; with MALME-3M melanoma, 55.8 µM; with HL-60(TB) leukemia, 17700 nM; with LOX IMVI melanoma, 24800 nM; in the assay on U251 CNS it was 53.8 µM. Further, the TGI in the assay on A498 renal is 943 nM; in the assay on SK-MEL-5 melanoma it was 8.1 µM; in the assay with HCC-2998 colon, 18.7 µM; in the assay on SN12C renal it was over 100 µM.

Consider `COC(=O)C(=O)C(C(=O)C(N)=O)c1nc2ccc(C(=O)c3ccccc3)cc2[nH]c1=O` (centres undefined), for which the TGI in the assay on HS 578T breast was over 100 µM; in the assay with CCRF-CEM leukemia it was over 100 µM; with MALME-3M melanoma, over 100 µM; in the assay on HL-60(TB) leukemia, over 100000 nM; in the assay on LOX IMVI melanoma it was over 100000 nM; with U251 CNS, over 100 µM. Besides, the TGI is over 100000 nM in the assay with A498 renal, over 100 µM with SK-MEL-5 melanoma, over 100 µM with HCC-2998 colon and over 100 µM in the assay with SN12C renal.

As for `Nc1cc2[nH]cnc2c(=O)[nH]1`, the TGI is over 300 µM in the assay with HS 578T breast; over 300 µM in the assay on CCRF-CEM leukemia; 298 µM in the assay on MALME-3M melanoma; 178000 nM in the assay with HL-60(TB) leukemia; over 300000 nM with LOX IMVI melanoma; over 300 µM in the assay on U251 CNS. Further, the TGI with A498 renal is 298000 nM; with SK-MEL-5 melanoma it was over 290 µM; with HCC-2998 colon it was over 300 µM; in the assay with SN12C renal it was over 300 µM.

`COc1cc2c3c(c1OC)C1(C=CC(=O)C=C1)CC3NCC2` (centres undefined): the TGI is over 100 µM in the assay on HS 578T breast; over 100 µM in the assay with CCRF-CEM leukemia; over 100 µM in the assay on MALME-3M melanoma; over 100000 nM in the assay with HL-60(TB) leukemia; over 100000 nM with LOX IMVI melanoma; over 100 µM in the assay with U251 CNS. Also, the TGI was over 100000 nM with A498 renal, over 100 µM with SK-MEL-5 melanoma, over 100 µM in the assay on HCC-2998 colon and over 100 µM with SN12C renal.

On to `Oc1c(CN2CCCC2)cc(CSCc2ccccc2)c2cccnc12`, for which the GI50 was 4700 nM in the assay with HS 578T breast; 429 nM in the assay on CCRF-CEM leukemia; 2040 nM with MALME-3M melanoma; 554 nM with HL-60(TB) leukemia; 386 nM in the assay with LOX IMVI melanoma; 789 nM in the assay on U251 CNS. In addition, the GI50 with A498 renal was 2260 nM; with SK-MEL-5 melanoma, 350 nM; in the assay on HCC-2998 colon, 1390 nM; in the assay on SN12C renal, 1690 nM. Also, the TGI in the assay with HS 578T breast worked out at 25 µM; in the assay with CCRF-CEM leukemia, 10.2 µM; in the assay on MALME-3M melanoma, 9.06 µM; in the assay on HL-60(TB) leukemia, 2770 nM; in the assay on LOX IMVI melanoma, 2480 nM; with U251 CNS it was 11.9 µM. The TGI stood at 8080 nM in the assay on A498 renal, 1.6 µM with SK-MEL-5 melanoma, 11.9 µM in the assay with HCC-2998 colon and 13.5 µM in the assay with SN12C renal.

As for `CC[C@]1(O)C[C@@H]2CN(CCc3c([nH]c4ccccc34)[C@@](C(=O)OC)(c3cc4c(cc3OC)N(C)[C@H]3[C@@](O)(C(N)=O)[C@H](O)[C@]5(CC)[C@@H]6C[C@@H]6CN6CC[C@]43[C@@H]65)C2)C1`, the GI50 in the assay on HS 578T breast was under 3.33 nM; in the assay on CCRF-CEM leukemia it was under 3.33 nM; with MALME-3M melanoma, 4900 nM; in the assay with HL-60(TB) leukemia, under 3.33 nM; in the assay on LOX IMVI melanoma it was under 3.33 nM; in the assay with U251 CNS, under 3.33 nM. The GI50 in the assay with A498 renal is 4.66 nM; in the assay on SK-MEL-5 melanoma it was under 3.33 nM; with HCC-2998 colon, 4.13 nM; with SN12C renal, 37.3 nM. In addition, the TGI with HS 578T breast was over 21.3 µM; with CCRF-CEM leukemia it was over 28.8 µM; with MALME-3M melanoma, 32.1 µM; in the assay on HL-60(TB) leukemia, 13 nM; in the assay with LOX IMVI melanoma, over 33300 nM; with U251 CNS, over 33.3 µM. For the same compound, the TGI with A498 renal is 243 nM; in the assay with SK-MEL-5 melanoma, 0.0546 µM; in the assay on HCC-2998 colon it was over 29 µM; with SN12C renal, over 33.3 µM.

Consider `Cc1cnc(Nc2ccc(OCCN3CCCC3)cc2)nc1Nc1cccc(S(=O)(=O)NC(C)(C)C)c1`, for which the GI50 is 181 nM and 568 nM with HS 578T breast; 398 nM and 1300 nM in the assay on CCRF-CEM leukemia; 894 nM and 2450 nM with MALME-3M melanoma; 516 nM with HL-60(TB) leukemia; 211 nM and 938 nM in the assay on LOX IMVI melanoma; 808 nM and 1350 nM with U251 CNS. For the same compound, the GI50 in the assay with A498 renal was 144 nM and 385 nM; in the assay on SK-MEL-5 melanoma it was 1730 nM and 2100 nM; in the assay on HCC-2998 colon, 409 nM and 1430 nM; in the assay with SN12C renal it was 128 nM and 980 nM. Also, the TGI with HS 578T breast was 2.28 µM and 3.58 µM; in the assay with CCRF-CEM leukemia it was over 21.7 µM; with MALME-3M melanoma, 12.3 µM and > 6.36 µM; in the assay on HL-60(TB) leukemia it was 600 nM and 2160 nM; in the assay with LOX IMVI melanoma, 1610 nM and 2300 nM; with U251 CNS it was 17.2 µM and > 10 µM. The TGI with A498 renal is 869 nM and 1570 nM; in the assay with SK-MEL-5 melanoma, 5.38 µM and > 5.38 µM; with HCC-2998 colon, 4.43 µM and > 7.01 µM; with SN12C renal it was 9.51 µM and > 9.64 µM.
